Experimental data: paper PMC10235067, “Increased renal elimination of endogenous and synthetic pyrimidine nucleosides in concentrative nucleoside transporter 1 deficient mice” (Nature Communications, 2023)
Where “and” joins values, the source holds several entries; their conditions need not be identical. Identical values can stand only once. Counter-ions that a name gives are not always drawn.

How the values were obtained:
[1] = Gemcitabine plasma pharmacokinetics in Slc28a1+/+ and Slc28a1-/- mice; details: plasma; for half-life: T1/2 (terminal half-life); for Vd: Vss
KPC cells [2] = experiment: Tumor burden by bioluminescent imaging after orthotopic implantation of KPC-LUC cells; details: orthotopic KPC-LUC tumors, Gemcitabine group, Fig. 6C source data
[3] = Gemcitabine urine pharmacokinetics (renal excretion) in Slc28a1+/+ and Slc28a1-/- mice
Description: THU was added to the mouse urine samples upon collection and frozen until analysis. […] Five microliters of the diluted samples were transferred to a 96-well autosampler plate then 10 µL of internal standard mixture was added and mixed. […] The plate was then transferred to the 4 °C autosampler for analysis.
The chromatographic separation was performed on a Thermo Accucore aQ 2.6 µm, 100 ×2.1 mm column at 30 °C using a gradient with a 10 µL injection volume. The mobiles phases were 1 mM ammonium acetate in deionized water pH 6.8 and acetonitrile. The total run time was 5.5 min. […] The LC–MS/MS analysis was conducted on a Thermo Vanquish UHPLC with a TSQ Quantiva mass spectrometer equipped with an electrospray ionization source.

KPC cells [4] = experiment: Survival of mice with orthotopic syngeneic KPC pancreatic tumors treated with dFdC
[5] = cited from earlier work
CNT1 = details: read-out: Km (affinity for CNT1); cited from earlier work
[6] = female, mouse, iv, 50 mg/kg, Slc28a1+/+ mice, single i.v. dFdC 50 mg/kg
[7] = female, mouse, iv, 50 mg/kg, Slc28a1-/- mice, single i.v. dFdC 50 mg/kg

Nc1ccn([C@@H]2O[C@H](CO)[C@@H](O)C2(F)F)c(=O)n1 [dFdC, Gemcitabine hydrochloride, reference compound]
concentration at 10 min ([1]; female, mouse, intravenous, 50 mg/kg, Cp (Gemcitabine), KO mice, single iv gemcitabine 50mg/kg, 10 min): 1.94 µg/mL | concentration at 60 min ([1]; female, mouse, intravenous, 50 mg/kg, Cp (Gemcitabine), KO mice, single iv gemcitabine 50mg/kg, 60 min): 0.0288 µg/mL | AUC(0-inf) ([1]; female, mouse, iv, 50 mg/kg, AUCINF_obs, Gemcitabine in plasma, WT mice, iv gemcitabine 50mg/kg, per mouse): 1120 ng·h/mL | AUC(0-inf) ([1]; female, mouse, iv, 50 mg/kg, AUCINF_pred, Gemcitabine in plasma, WT mice, iv gemcitabine 50mg/kg, per mouse): 1130 ng·h/mL | AUC ([1]; female, mouse, iv, 50 mg/kg, AUCall, Gemcitabine in plasma, WT mice, iv gemcitabine 50mg/kg, per mouse): 1010 ng·h/mL | AUC(0-t) ([1]; female, mouse, iv, 50 mg/kg, AUClast, Gemcitabine in plasma, WT mice, iv gemcitabine 50mg/kg, per mouse): 1010 ng·h/mL | clearance ([1]; female, mouse, iv, 50 mg/kg, CL (systemic clearance), Slc28a1+/+ mice, single i.v. dFdC 50 mg/kg): 607 mL/min/kg | clearance ([1]; female, mouse, iv, 50 mg/kg, CL (systemic clearance), Slc28a1-/- mice, single i.v. dFdC 50 mg/kg): 951 ± 167 mL/min/kg | clearance ([1]; female, mouse, iv, 50 mg/kg, Cl_obs, Gemcitabine in plasma, WT mice, iv gemcitabine 50mg/kg, per mouse): 745 mL/min/kg | Cmax [1, 6]: 3.65 ± 0.408 µg/mL | Cmax [1, 7]: 3.12 ± 0.335 µg/mL | half-life [1, 6]: 13.6 ± 0.67 min | half-life [1, 7]: 11.5 ± 0.81 min | Tmax [1, 6]: ~5 min | Tmax [1, 7]: ~5 min | Vd [1, 6]: 14.4 L/kg | Vd [1, 7]: 14.1 L/kg | Cp (Gemcitabine) ([1]; KO mice, single iv gemcitabine 50mg/kg, 10 min): 2.50577 µg/mL and 1.69901 µg/mL and 1.48777 µg/mL and 1.7432 µg/mL and 1.81705 µg/mL | Cp (Gemcitabine) ([1]; KO mice, single iv gemcitabine 50mg/kg, 60 min): 0.0303338 µg/mL and 0.0295353 µg/mL and 0.0273213 µg/mL and 0.0282215 µg/mL and 0.0275324 µg/mL | Tumor burden (bioluminescent imaging signal), individual mice (KPC cells [2]; day 7, Slc28a1-/- mice): -32133333333 and 23906666667 and -21903333333 and -24593333333 and -34283333333 and 89006666667 | Tumor burden (bioluminescent imaging signal), individual mice (KPC cells [2]; day 7, wild-type mice): 59739000000 and -37121000000 and -92035000000 and 9139000000 and 52739000000 and 7539000000 | Tumor burden (bioluminescent imaging signal), individual mice (KPC cells [2]; day 14, Slc28a1-/- mice): 144007000000 and 59806666667 and 55206666667 and 122107000000 and 12746666667 and 52806666667 | Tumor burden (bioluminescent imaging signal), individual mice (KPC cells [2]; day 14, wild-type mice): 127000000000 and 202000000000 and 71900000000 and 123000000000 and 33800000000 and -44800000000 | Tumor burden (bioluminescent imaging signal), individual mice (KPC cells [2]; day 21, Slc28a1-/- mice): 903000000000 and 356000000000 and 622000000000 and 1010000000000 and 2710000000000 and 506000000000 | Tumor burden (bioluminescent imaging signal), individual mice (KPC cells [2]; day 21, wild-type mice): 998000000000 and 735000000000 and 252000000000 and 420000000000 and 526000000000 and 763000000000 | Tumor burden (bioluminescent imaging signal), individual mice (KPC cells [2]; day 25, Slc28a1-/- mice): 1770000000000 and 1210000000000 and 722000000000 and 1860000000000 and 1930000000000 and 2060000000000 | Tumor burden (bioluminescent imaging signal), individual mice (KPC cells [2]; day 25, wild-type mice): 1230000000000 and 109000000000 and 355000000000 and 803000000000 and 1440000000000 and 1090000000000 | Cp (Gemcitabine) ([3]; Figure 5 G, H, I, KO mice, 5 Minutes, individual mice): 667.756 µg/mL and 701.121 µg/mL and 742.057 µg/mL and 708.576 µg/mL and 1006.774 µg/mL | Cp (Gemcitabine) ([3]; Figure 5 G, H, I, KO mice, 10 Minutes, individual mice): 1196.136 µg/mL and 1117.096 µg/mL and 1176.76 µg/mL and 1333.848 µg/mL and 1383.016 µg/mL and 1407.258 µg/mL | Cp (Gemcitabine) ([3]; Figure 5 G, H, I, KO mice, 15 Minutes, individual mice): 1417.457 µg/mL and 1463.209 µg/mL and 1417.045 µg/mL and 1464.236 µg/mL and 1528.485 µg/mL and 1605.582 µg/mL | Cp (Gemcitabine) ([3]; Figure 5 G, H, I, KO mice, 30 Minutes, individual mice): 1020.435 µg/mL and 1043.589 µg/mL and 1004.789 µg/mL and 686.314 µg/mL and 637.597 µg/mL | Cp (Gemcitabine) ([3]; Figure 5 G, H, I, KO mice, 60 Minutes, individual mice): 806.557 µg/mL and 703.249 µg/mL and 814.631 µg/mL and 838.872 µg/mL and 677.262 µg/mL | Cp (Gemcitabine) ([3]; Figure 5 G, H, I, KO mice, 120 Minutes, individual mice): 1007.916 µg/mL and 1001.638 µg/mL and 923.671 µg/mL and 928.827 µg/mL and 1022.245 µg/mL | Cp (Gemcitabine) ([3]; Figure 5 G, H, I, KO mice, 240 Minutes, individual mice): 131.108 µg/mL and 117.705 µg/mL and 128.911 µg/mL and 104.939 µg/mL and 51.416 µg/mL and 148.894 µg/mL | Cp (Gemcitabine) ([3]; Figure 5 G, H, I, WT mice, 5 Minutes, individual mice): 473.332 µg/mL and 486.741 µg/mL and 465.952 µg/mL and 485.933 µg/mL and 493.479 µg/mL | Cp (Gemcitabine) ([3]; Figure 5 G, H, I, WT mice, 10 Minutes, individual mice): 654.272 µg/mL and 654.234 µg/mL and 642.732 µg/mL and 677.281 µg/mL and 755.524 µg/mL | Cp (Gemcitabine) ([3]; Figure 5 G, H, I, WT mice, 15 Minutes, individual mice): 869.257 µg/mL and 882.561 µg/mL and 865.564 µg/mL and 871.549 µg/mL and 735.964 µg/mL | Cp (Gemcitabine) ([3]; Figure 5 G, H, I, WT mice, 30 Minutes, individual mice): 865.074 µg/mL and 694.859 µg/mL and 1051.246 µg/mL and 934.229 µg/mL and 1018.271 µg/mL | Cp (Gemcitabine) ([3]; Figure 5 G, H, I, WT mice, 60 Minutes, individual mice): 691.965 µg/mL and 701.388 µg/mL and 530.199 µg/mL and 662.975 µg/mL and 688.86 µg/mL | Cp (Gemcitabine) ([3]; Figure 5 G, H, I, WT mice, 120 Minutes, individual mice): 410.29 µg/mL and 371.477 µg/mL and 406.197 µg/mL and 640.633 µg/mL and 369.675 µg/mL | Cp (Gemcitabine) ([3]; Figure 5 G, H, I, WT mice, 240 Minutes, individual mice): 394.084 µg/mL and 419.478 µg/mL and 409.47 µg/mL and 387.436 µg/mL and 378.97 µg/mL | Dose in Urine (% of total dose administered) ([3]; Slc28a1+/+ mice, single i.v. dFdC 50 mg/kg): 7.53% | Dose in Urine (% of total dose administered) ([3]; Slc28a1-/- mice, single i.v. dFdC 50 mg/kg): 13.73% | concentration at 5 min ([3]; mouse, urine, intravenous, 50 mg/kg, Cp (Gemcitabine), Figure 5 G, H, I, KO mice, 5 Minutes, individual mice): 690 µg/mL | concentration at 30 min ([3]; mouse, urine, intravenous, 50 mg/kg, Cp (Gemcitabine), Figure 5 G, H, I, KO mice, 30 Minutes, individual mice): 995 µg/mL | concentration at 60 min ([3]; mouse, urine, intravenous, 50 mg/kg, Cp (Gemcitabine), Figure 5 G, H, I, KO mice, 60 Minutes, individual mice): 801 µg/mL | concentration at 120 min ([3]; mouse, urine, intravenous, 50 mg/kg, Cp (Gemcitabine), Figure 5 G, H, I, KO mice, 120 Minutes, individual mice): 977 µg/mL | concentration at 5 min ([3]; mouse, urine, intravenous, 50 mg/kg, Cp (Gemcitabine), Figure 5 G, H, I, WT mice, 5 Minutes, individual mice): 447 µg/mL | concentration at 10 min ([3]; mouse, urine, intravenous, 50 mg/kg, Cp (Gemcitabine), Figure 5 G, H, I, WT mice, 10 Minutes, individual mice): 628 µg/mL | concentration at 15 min ([3]; mouse, urine, intravenous, 50 mg/kg, Cp (Gemcitabine), Figure 5 G, H, I, WT mice, 15 Minutes, individual mice): 859 µg/mL | concentration at 30 min ([3]; mouse, urine, intravenous, 50 mg/kg, Cp (Gemcitabine), Figure 5 G, H, I, WT mice, 30 Minutes, individual mice): 725 µg/mL | concentration at 60 min ([3]; mouse, urine, intravenous, 50 mg/kg, Cp (Gemcitabine), Figure 5 G, H, I, WT mice, 60 Minutes, individual mice): 864 µg/mL | concentration at 120 min ([3]; mouse, urine, intravenous, 50 mg/kg, Cp (Gemcitabine), Figure 5 G, H, I, WT mice, 120 Minutes, individual mice): 403 µg/mL | concentration at 240 min ([3]; mouse, urine, intravenous, 50 mg/kg, Cp (Gemcitabine), Figure 5 G, H, I, WT mice, 240 Minutes, individual mice): 400 µg/mL | renal clearance (CLr) in Slc28a1-/- mice higher than in Slc28a1+/+ mice ([3]; non-compartmentally calculated, single i.v. dFdC 50 mg/kg): 126.63% | Survival, Days (individual mice) (KPC cells [4]; CNT1 (Slc28a1-/-) Gemcitabine (25mg/ml) group, Fig. 6E source data): 27 days and 32 days and 35 days and 39 days | Survival, Days (individual mice) (KPC cells [4]; CNT1 (Slc28a1-/-) Gemcitabine (37mg/ml) group, Fig. 6E source data): 30 days and 43 days and 45 days and 46 days | Survival, Days (individual mice) (KPC cells [4]; CNT1 (Slc28a1-/-) Gemcitabine group, Fig. 6D source data): 26 days and 43 days and 35 days and 23 days and 45 days | Survival event flag (1 = event, 0 = censored), individual mice (KPC cells [4]; CNT1 + Gemcitabine (Slc28a1-/-), Fig. 6D source data): 1 | Survival event flag (1 = event, 0 = censored), individual mice (KPC cells [4]; CNT1 Gemcitabine (25mg/ml), Fig. 6E source data, column headed CNT1 + Vehicle): 1 | Survival event flag (1 = event, 0 = censored), individual mice (KPC cells [4]; CNT1 Gemcitabine (37mg/ml), Fig. 6E source data): 1 | mice remaining healthy at day 45 (KPC cells [4]; Slc28a1+/+ mice, dFdC 25 mg/kg i.v.): approximately 66% | median overall survival (KPC cells [4]; Slc28a1+/+ mice, dFdC 25 mg/kg i.v. twice a week, Fig. 6D): > 50 days | day by which all mice died (KPC cells [4]; Slc28a1-/- mice, dFdC 25 mg/kg i.v.): ≤ 45 days | median overall survival (KPC cells [4]; Slc28a1-/- mice, dFdC 25 mg/kg i.v. twice a week, Fig. 6D): 39 days | median overall survival (KPC cells [4]; Slc28a1-/- mice, dFdC 37 mg/kg i.v. twice a week, Fig. 6E): 42 days | Survival event flag (1 = event, 0 = censored), individual mice (KPC cells [4]; WT + Gemcitabine, Fig. 6D source data): 0 and 1 | Survival, Days (individual mice) (KPC cells [4]; WT Gemcitabine group, Fig. 6D source data, event flag in WT + Gemcitabine): 50 days and 33 days and 45 days | Log P [5]: −1.5 | Km (CNT1): 12 to 36 µM
